These are literature values, as cited in patent US20250134912A1 (Theaprin Pharmaceuticals, Inc., priority 2021, published 2025).

The test system of series [1] is critically ill children with suspected zinc deficiency. Particulars: in vivo, iv, 0.75 mg/kg/day.
In series [2] the test system is hospitalized patients with COVID-19. To be noted: aspirin used was not an aspirin/theanine cocrystal.
In series [3] the test system is patients with COVID-19. Particulars: 31 patients with COVID-19, in comparison to the controlled patients.
In series [4] the test system is SARS-COV-2. To be noted: SARS-COV-2, in vitro.
The conditions of series [5]: at 25° C.

For `[Zn]` [Elemental zinc], the adverse effects entry in series [1] is on record as “without producing any adverse effects”. `CC(=O)Oc1ccccc1C(=O)O` [aspirin, acetylsalicylic acid]: the “mechanical ventilation, ICU admission, and in-hospital mortality” value in series [2] is listed as “decrease”. `OCCN(CCO)c1nc(N2CCCCC2)c2nc(N(CCO)CCO)nc(N3CCCCC3)c2n1` [dipyridamole, 2,6 bis-(diethanolamino)-4,8 dipiperidino-pyrimido-(5,4-d)pyrimidine]: in series [3], the clinical outcomes is recorded as “markedly improved”; the “lymphocyte and plasma platelet recovery” value is recorded as “increased”. Moreover, in series [3] (P>0.05), the D-Dimer result is listed as “significantly decreased”. In addition, the “viral replication in vitro” value in series [4] is reported as “suppressed”. Regarding `[Cl-].[Cl-].[Zn+2]` [zinc chloride, Zinc chloride], the water solubility in series [5] is 432 g/100 ml water.
